Experimental data reported in patent US20040097594A1 (priority 1998, published 2004).
Like-named read-outs stand apart in the source and are kept apart here.

Legend:
HIV-1 (strain IIIB) = experiment: microbe, parasite or virus in culture; format: cell-based; conditions: lower line of each compound's entry, read-out: IC50 (MT-4 cells)
HIV-1 protease = HIV-1 protease (Human immunodeficiency virus type 1 group M subtype B, UniProt P04585); experiment: biochemical
[1] = Human immunodeficiency virus 1, 120 h, MT4 cells infected with HIV-1 strain IIIB, 5 days
[2] = HIV-1 protease, upper line of each compound's entry, read-out: Ki (enzyme)
[3] = Human immunodeficiency virus 1, IIIB, MT4, 120 h, […]

Nc1ccc(S(=O)(=O)N(C[C@@H](O)[C@H](Cc2ccccc2)NC(=O)O[C@H]2CO[C@H]3OCC[C@H]32)OC2CCOCC2)cc1 [Compound 146, (3R,3aS,6aR)hexahydrofuro[2,3-b]furan-3-yl 3-[[(4-aminophenyl)sulfonyl](tetrahydro-2H-pyran-4-yloxy)amino]-1-benzyl-2-hydroxypropylcarbamate]
IC50 (HIV-1 (strain IIIB); [1]): ≤ 100 nM
Ki (HIV-1 protease; [2]): < 1 nM

CNC(=O)NCCNc1cccc(S(=O)(=O)N(CC(O)C(Cc2ccccc2)NC(=O)OC2COC3OCCC23)OC2CCCC2)c1 [Compound 121, (3R,3aS,6aR)hexahydrofuro[2,3-b]furan-3-yl N-(1S,2R)-1-benzyl-3-[(cyclopentyloxy)(3-[(2-[(methylamino)carbonyl]aminoethyl)amino]phenylsulfonyl)amino]-2-hydroxypropylcarbamate and (3S,3aR,6aS)hexahydrofuro[2,3-b]furan-3-yl N-(1S,2R)-1-benzyl-3-[(cyclopentyloxy)(3-[(2-[(methylamino)carbonyl]aminoethyl)amino]phenylsulfonyl)amino]-2-hydroxypropylcarbamate]
IC50 (HIV-1 (strain IIIB); [1]): 100 to 500 nM
Ki (HIV-1 protease; [2]): < 1 nM

COc1ccc(S(=O)(=O)N(C[C@@H](O)[C@H](Cc2ccccc2)NC(=O)OC2CO[C@H]3OCC[C@@H]23)OC2CCCC2)cc1OC (stereo partly drawn) [Compound 140, (3R,3aS,6aR)hexahydrofuro[2,3-b]furan-3-yl N-((1S, 2R)-1-benzyl-3-(cyclopentyloxy)[(3,4-dimethoxyphenyl)sulfonyl]amino-2-hydroxypropyl)carbamate]
IC50 (HIV-1 (strain IIIB); [1]): ≤ 100 nM
Ki (HIV-1 protease; [2]): < 1 nM

CC(C)(C)OC(=O)N[C@@H](Cc1ccccc1)[C@H](O)CN(OC1CCCC1)S(=O)(=O)c1cccc(N)c1 [Compound 11, tert-butyl N-(1S,2R)-3-[[(3-aminophenyl)sulfonyl](cyclopentyloxy)amino]-1-benzyl-2-hydroxypropylcarbamate]
IC50 (HIV-1 (strain IIIB); [1]): > 1000 nM
Ki (HIV-1 protease; [2]): 1 to 10 nM

COc1ccc(S(=O)(=O)N(C[C@@H](O)[C@H](Cc2ccccc2)NC(=O)C(C)CS(C)(=O)=O)OC2CCCC2)cc1 (stereo partly drawn) [Compound 115, 1N-(3-Methylsulfonylisobutyryl)-(1S,2R)-1-benzyl-3-(cyclopentyloxy)[4-methoxyphenylsulfonyl]amino-2-hydroxypropylamine]
IC50 (HIV-1 (strain IIIB); [1]): 500 to 1000 nM
Ki (HIV-1 protease; [2]): > 100 nM

O=C(N[C@@H](Cc1ccccc1)[C@@H](CN(OC1CCCC1)S(=O)(=O)c1ccc2c(c1)OCCO2)OP(=O)(O)O)O[C@H]1CO[C@H]2OCC[C@H]21 [Compound 144, (3R,3aS,6aR)hexahydrofuro[2,3-b]furan-3-yl N-[(1S,2R)-1-benzyl-3-[(cyclopentyloxy)(2,3-dihydro-1,4-benzodioxin-6-ylsulfonyl)amino]-2-(phosphonooxy)propyl]carbamate]
IC50 (HIV-1 (strain IIIB); [1]): ≤ 100 nM
Ki (HIV-1 protease): < 1 nM

Nc1ccc(S(=O)(=O)N(C[C@@H](O)[C@H](Cc2ccccc2)NC(=O)O[C@H]2CO[C@H]3OCC[C@H]32)OC2CCCCC2)cc1 [Compound 153, (3R,3aS,6aR)hexahydrofuro[2,3-b]furan-3-yl(1S,2R)-3-[[(4-aminophenyl)sulfonyl](cyclohexyloxy)amino]-1-benzyl-2-hydroxypropylcarbamate]
IC50 (HIV-1 (strain IIIB); [1]): ≤ 100 nM
Ki (HIV-1 protease; [2]): < 1 nM

O=C(N[C@@H](Cc1ccccc1)[C@H](O)CN(OC1CCCC1)S(=O)(=O)c1cccc(OCC(=O)N2CCOCC2)c1)O[C@H]1CO[C@H]2OCC[C@H]21 [Compound 135, (3R,3aS,6aR)hexahydrofuro[2,3-b]furan-3-yl N-[(1S,2R)-1-benzyl-3-((cyclopentyloxy)[3-(2-morpholino-2-oxoethoxy)phenyl]sulfonylamino)-2-hydroxypropyl]carbamate]
IC50 (HIV-1 (strain IIIB); [1]): ≤ 100 nM
Ki (HIV-1 protease; [2]): 1 to 10 nM

COc1ccc(S(=O)(=O)N(C[C@@H](O)[C@H](Cc2ccccc2)NC(=O)OC2COCOC2)OC2CCCC2)cc1 [Compound 48, 1,3-dioxan-5-yl N-((1S,2R)-1-benzyl-3-(cyclopentyloxy)[(4-methoxyphenyl)sulfonyl]amino-2-hydroxypropyl)carbamate]
IC50 (HIV-1 (strain IIIB); [1]): 100 to 500 nM
Ki (HIV-1 protease; [2]): < 1 nM

CC(C)Oc1cccc(S(=O)(=O)N(C[C@@H](O)[C@H](Cc2ccccc2)NC(=O)OC2CO[C@H]3OCC[C@@H]23)OC2CCCC2)c1 (stereo partly drawn) [Compound 142, (3R,3aS,6aR)hexahydrofuro[2,3-b]furan-3-yl N-((1S,2R)-1-benzyl-3-(cyclopentyloxy)[(3-isopropoxyphenyl)sulfonyl]amino-2-hydroxypropyl)carbamate]
IC50 (HIV-1 (strain IIIB); [3]): 100 to 500 nM
Ki (HIV-1 protease; [2]): < 1 nM

O=C(O)CNc1cccc(S(=O)(=O)N(CC(O)C(Cc2ccccc2)NC(=O)OC2COC3OCCC23)OC2CCCC2)c1 [Compound 35, 2-2-(3-[[(2R,3S)-3-([(3R,3aS,6aR)hexahydrofuro[2,3-b]furan-3-yloxy]carbonylamino)-hydroxy-4-phenylbutyl](cyclopentyloxy)amino]sulfonylanilino)acetic acid and 2-2-(3-[[(2R,3S)-3-([(3S,3aR,6aS)hexahydrofuro[2,3-b]furan-3-yloxy]carbonylamino)-hydroxy-4-phenylbutyl](cyclopentyloxy)amino]sulfonylanilino)acetic acid]
IC50 (HIV-1 (strain IIIB); [1]): > 1000 nM
Ki (HIV-1 protease; [2]): < 1 nM

CC(C)COC(=O)N(CC(=O)NCCO)c1cccc(S(=O)(=O)N(CC(O)C(Cc2ccccc2)NC(=O)OC2COC3OCCC23)OC2CCCC2)c1 [Compound 37, (3R,3aS,6aR)hexahydrofuro[2,3-b]furan-3-yl N-(1S,2R)-1-benzyl-3-[(cyclopentyloxy)(3-[2-[(2-hydroxyethyl)amino]-2-oxoethyl(isobutoxycarbonyl)amino)phenylsulfonyl)amino]-2-hydroxypropylcarbamate and (3S,3aR,6aS)hexahydrofuro[2,3-b]furan-3-yl N-(1S,2R)-1-benzyl-3-[(cyclopentyloxy)(3-[2-[(2-hydroxyethyl)amino]-2-oxoethyl(isobutoxycarbonyl)amino]phenylsulfonyl)amino]-2-hydroxypropylcarbamate]
IC50 (HIV-1 (strain IIIB); [1]): ≤ 100 nM
Ki (HIV-1 protease; [2]): < 1 nM

NCCNc1cccc(S(=O)(=O)N(CC(O)C(Cc2ccccc2)NC(=O)OC2COC3OCCC23)OC2CCCC2)c1 [Compound 83, (3R,3aS,6aR)hexahydrofuro[2,3-b]furan-3-yl N-(1S,2R)-3-[(3[(2-aminoethyl)amino]phenylsulfonyl)(cyclopentyloxy)amino]-1-benzyl-2-hydroxypropylcarbamate and (3S,3aR,6aS)hexahydrofuro[2,3-b]furan-3-yl N-(1S,2R)-3-[(3[(2-aminoethyl)amino]phenylsulfonyl)(cyclopentyloxy)amino]-1-benzyl-2-hydroxypropylcarbamate]
IC50 (HIV-1 (strain IIIB); [1]): 100 to 500 nM
Ki (HIV-1 protease; [2]): < 1 nM

CCC(CC)ON(C[C@@H](O)[C@H](Cc1ccccc1)NC(=O)O[C@H]1CO[C@H]2OCC[C@H]21)S(=O)(=O)c1ccc(N)cc1 [Example 163, (3R,3aS,6aR)hexahydrofuro[2,3-b]furan-3-yl(1S,2R)-3-[[(4-aminophenyl)sulfonyl](1-ethylpropoxy)amino]-1-benzyl-2-hydroxypropylcarbamate]
IC50 (HIV-1 (strain IIIB); [1]): ≤ 100 nM
Ki (HIV-1 protease; [2]): < 1 nM

CC(C)ON(C[C@@H](O)[C@H](Cc1ccccc1)NC(=O)OC(C)(C)C)S(=O)(=O)c1cccc(N)c1 [Compound 1]
IC50 (HIV-1 (strain IIIB); [1]): > 1000 nM
Ki (HIV-1 protease; [2]): 10 to 100 nM

CC(C)Oc1ccc(S(=O)(=O)N(C[C@@H](O)[C@H](Cc2ccccc2)NC(=O)OC2CO[C@H]3OCC[C@@H]23)OC2CCCC2)cc1 (stereo partly drawn) [Compound 141, (3R,3aS,6aR)hexahydrofuro[2,3-b]furan-3-yl N-((1S,2R)-1-benzyl-3-(cyclopentyloxy)[(4-isopropoxyphenyl)sulfonyl]amino-2-hydroxypropyl)carbamate]
IC50 (HIV-1 (strain IIIB); [3]): > 1000 nM
Ki (HIV-1 protease; [2]): < 1 nM

CCC(C)ON(C[C@@H](O)[C@H](Cc1ccccc1)NC(=O)[C@H](CC(N)=O)NC(=O)c1ccc2ccccc2n1)S(=O)(=O)c1ccc(OC)cc1 (some centres unmarked) [Compound 71]
IC50 (HIV-1 (strain IIIB); [3]): ≤ 100 nM
Ki (HIV-1 protease; [2]): < 1 nM

COc1ccc(S(=O)(=O)N(C[C@@H](O)[C@H](Cc2ccccc2)NC(=O)OC2COCOC2)OC2CCOCC2)cc1 [Compound 74, 1,3-dioxan-5-yl N-(1S,2R)-1-benzyl-2-hydroxy-3-[[(4-methoxyphenyl)sulfonyl](tetrahydro-2H-pyran-4-yloxy)amino]propylcarbamate]
IC50 (HIV-1 (strain IIIB); [1]): ≤ 100 nM
Ki (HIV-1 protease; [2]): < 1 nM

CCC(CC)ON(C[C@@H](O)[C@H](Cc1ccccc1)NC(=O)O[C@H]1CO[C@H]2OCC[C@H]21)S(=O)(=O)c1ccc2c(c1)OCO2 [Example 162, (3R,3aS,6aR)hexahydrofuro[2,3-b]furan-3-yl(1S,2R)-3-[(1,3-benzodioxol-5-ylsulfonyl)(1-ethylpropoxy)amino]-1-benzyl-2-hydroxypropylcarbamate]
IC50 (HIV-1 (strain IIIB); [1]): ≤ 100 nM
Ki (HIV-1 protease; [2]): < 1 nM

O=C(N[C@@H](Cc1ccccc1)[C@H](O)CN(OC1CCCC1)S(=O)(=O)c1ccc2nccnc2c1)O[C@H]1CO[C@H]2OCC[C@H]21 [Compound 90]
IC50 (HIV-1 (strain IIIB); [1]): ≤ 100 nM
Ki (HIV-1 protease; [2]): < 1 nM

O=C(N[C@@H](Cc1ccccc1)[C@H](O)CC(OC1CCCC1)S(=O)(=O)c1ccc2nccnc2c1)OC1CCOC1 (stereo in doubt) [Compound 110, (3S)tetrahydro-3-furanyl N-[(1S,2R)-1-benzyl-4-(cyclopentyloxy)-2-hydroxy-4-(6-quinoxalinylsulfonyl)butyl]carbamate]
IC50 (HIV-1 (strain IIIB); [1]): 100 to 500 nM
Ki (HIV-1 protease; [2]): < 1 nM

CC(C)ON(C[C@@H](O)[C@H](Cc1ccccc1)NC(=O)O[C@H]1CCOC1)S(=O)(=O)c1ccc2[nH]c(=O)[nH]c2c1 [Compound 62, (3S)tetrahydro-3-furanyl N-((1S,2R)-1-benzyl-2-hydroxy-3-isopropoxy[(2-oxo-2,3-dihydro-1H-1,3-benzimidazol-5-yl)sulfonyl]aminopropyl)carbamate]
IC50 (HIV-1 (strain IIIB); [1]): > 1000 nM
Ki (HIV-1 protease; [2]): 1 to 10 nM
